Laboratory results reported in patent publication US20050238580A1 (priority 2002, published 2005).

Key:
intestinal lactase [1] = biological target: T1, intestinal lactase (Homo sapiens, UniProt P09848); experiment: Xylose in blood plasma of human volunteers after oral 4-galactosyl-xylose, colorimetric titration with fluoroglucinol; assay type: in vivo
T1 construct: from tissue; host or cells: small-intestinal mucous membrane of living adult human volunteers (in vivo)
Method: Oral administration of 3 g of 4-galactosyl-xylose to adult human volunteers with lactose tolerance gave rise to the gradual presence of xylose in blood plasma titrated calorimetrically with fluoroglucinol, that reached a maximum about 2 hours after the intake of the disaccharide. Oral administration of the same amount of 4-galactosyl-xylose to an adult human volunteer with lactose intolerance diagnosed as hypolactasic produced a significant reduction in the amount of xylose evaluated in blood plasma of this individual two hours after the intake of the disaccharide.
The evaluation of xylose in blood after the oral administration of 4-galactosyl-xylose permits non-invasive diagnosis of intestinal lactase deficiency. This has been shown by administering 3 g of 4-galactosyl-xylose to two volunteers with lactose tolerance [individual 1, Example 17 and individual 2, Example 18 (these individuals were also studied in Examples 3 to 6)] and to the hypolactasic individual 12 with lactose intolerance [Example 19 (this individual was also studied in examples 12 and 15]). Xylose was titrated colorimetrically with fluoroglucinol in blood plasma of blood samples obtained from these individuals prior to the intake of the disaccharide and after the intake thereof at approximately 1 hour intervals for 6 hours: in the hypolactasic individual a basal blood sample and another blood sample 2 hours after the intake of the 4-galactosyl-xylose disaccharide were taken. […] In view of the amount of xylose detected in the individual with lactose intolerance 2 hours after the intake of 4-galactosyl-xylose, 0.48 μg/100 μl of plasma and the sensitivity of the titration (minimum detection limit of xylose with fluoroglucinol of […]), the minimum volume of serum or plasma to reliably make the measurement is estimated to be 50 μl, which is equivalent to 0.2 ml of blood (2 to 3 drops).

intestinal lactase [2] = biological target: T2, intestinal lactase (Rattus norvegicus, UniProt Q02401); experiment: Xylose in blood plasma after oral 4-galactosyl-xylose versus intestinal lactase activity in unweaned rats; assay type: in vivo
T2 construct: hydrolysis of the 4-galactosyl-xylose administered is detected by the action of intestinal lactase; from tissue; host or cells: small-intestinal mucous membrane of living unweaned rats (in vivo); activity also measured post mortem in mucosa homogenate
T2 sequence (Q02401 868-1928): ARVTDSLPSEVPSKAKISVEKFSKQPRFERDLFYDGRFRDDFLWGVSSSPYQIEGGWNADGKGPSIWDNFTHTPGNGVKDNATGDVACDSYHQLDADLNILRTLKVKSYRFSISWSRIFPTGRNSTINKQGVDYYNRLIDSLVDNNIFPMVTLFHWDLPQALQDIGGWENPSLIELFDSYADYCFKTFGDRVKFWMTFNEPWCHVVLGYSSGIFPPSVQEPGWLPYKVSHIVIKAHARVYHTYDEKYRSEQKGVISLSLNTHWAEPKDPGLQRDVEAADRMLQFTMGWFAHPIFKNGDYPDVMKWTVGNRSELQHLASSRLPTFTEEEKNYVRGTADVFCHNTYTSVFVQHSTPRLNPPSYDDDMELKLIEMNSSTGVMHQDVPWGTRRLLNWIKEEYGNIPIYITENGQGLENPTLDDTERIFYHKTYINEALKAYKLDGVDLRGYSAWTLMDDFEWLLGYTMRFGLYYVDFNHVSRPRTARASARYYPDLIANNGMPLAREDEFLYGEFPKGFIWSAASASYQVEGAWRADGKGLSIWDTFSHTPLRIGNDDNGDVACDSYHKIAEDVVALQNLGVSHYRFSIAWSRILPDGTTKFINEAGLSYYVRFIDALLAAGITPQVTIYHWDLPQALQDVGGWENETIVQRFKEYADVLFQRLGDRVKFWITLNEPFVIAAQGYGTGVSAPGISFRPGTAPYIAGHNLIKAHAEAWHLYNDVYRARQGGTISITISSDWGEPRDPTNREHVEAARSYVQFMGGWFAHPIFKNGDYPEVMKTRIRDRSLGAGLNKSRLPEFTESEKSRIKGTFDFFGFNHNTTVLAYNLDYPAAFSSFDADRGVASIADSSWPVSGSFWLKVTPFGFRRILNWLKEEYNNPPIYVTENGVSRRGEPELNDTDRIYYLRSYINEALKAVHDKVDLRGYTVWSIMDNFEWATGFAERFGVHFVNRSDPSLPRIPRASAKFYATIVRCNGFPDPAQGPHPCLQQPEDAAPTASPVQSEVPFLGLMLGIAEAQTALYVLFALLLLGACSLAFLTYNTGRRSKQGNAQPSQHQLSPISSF
Source text: Correlation between the excretion of xylose in urine and the presence of xylose in blood after oral administration of 4-galactosyl-xylose with intestinal lactase activity. This has been shown in unweaned rats by comparing during the growth of these animals the amount of xylose in plasma analyzed after orally administering to them 4-galactosyl-xylose with specific lactase activity evaluated postmortem in the intestinal mucous membrane. For this purpose, a group comprised of 60 12-day old unweaned rats belonging to two litters fasted for 6 hours by being separated from the mother. After this period of time passed, basal blood was extracted from each animal by means of a heart puncture and each rat was immediately administered 8 mg of 4-galactosyl-xylose diluted in 0.3 ml of distilled water by using an intraesophageal probe. 3 hours after the disaccharide was administered another blood sample was extracted. The blood plasma or supernatant fraction was obtained by centrifuging this sample and the xylose therein was titrated by calorimetric analysis with fluoroglucinol and using the plasma of the basal blood as the target. Immediately after the blood was extracted, four of the animals were sacrificed and the lactase activity in the intestinal mucous membrane was directly evaluated in the same manner as the one described in Example 1. […]

T1 sequence (P09848 869-1927): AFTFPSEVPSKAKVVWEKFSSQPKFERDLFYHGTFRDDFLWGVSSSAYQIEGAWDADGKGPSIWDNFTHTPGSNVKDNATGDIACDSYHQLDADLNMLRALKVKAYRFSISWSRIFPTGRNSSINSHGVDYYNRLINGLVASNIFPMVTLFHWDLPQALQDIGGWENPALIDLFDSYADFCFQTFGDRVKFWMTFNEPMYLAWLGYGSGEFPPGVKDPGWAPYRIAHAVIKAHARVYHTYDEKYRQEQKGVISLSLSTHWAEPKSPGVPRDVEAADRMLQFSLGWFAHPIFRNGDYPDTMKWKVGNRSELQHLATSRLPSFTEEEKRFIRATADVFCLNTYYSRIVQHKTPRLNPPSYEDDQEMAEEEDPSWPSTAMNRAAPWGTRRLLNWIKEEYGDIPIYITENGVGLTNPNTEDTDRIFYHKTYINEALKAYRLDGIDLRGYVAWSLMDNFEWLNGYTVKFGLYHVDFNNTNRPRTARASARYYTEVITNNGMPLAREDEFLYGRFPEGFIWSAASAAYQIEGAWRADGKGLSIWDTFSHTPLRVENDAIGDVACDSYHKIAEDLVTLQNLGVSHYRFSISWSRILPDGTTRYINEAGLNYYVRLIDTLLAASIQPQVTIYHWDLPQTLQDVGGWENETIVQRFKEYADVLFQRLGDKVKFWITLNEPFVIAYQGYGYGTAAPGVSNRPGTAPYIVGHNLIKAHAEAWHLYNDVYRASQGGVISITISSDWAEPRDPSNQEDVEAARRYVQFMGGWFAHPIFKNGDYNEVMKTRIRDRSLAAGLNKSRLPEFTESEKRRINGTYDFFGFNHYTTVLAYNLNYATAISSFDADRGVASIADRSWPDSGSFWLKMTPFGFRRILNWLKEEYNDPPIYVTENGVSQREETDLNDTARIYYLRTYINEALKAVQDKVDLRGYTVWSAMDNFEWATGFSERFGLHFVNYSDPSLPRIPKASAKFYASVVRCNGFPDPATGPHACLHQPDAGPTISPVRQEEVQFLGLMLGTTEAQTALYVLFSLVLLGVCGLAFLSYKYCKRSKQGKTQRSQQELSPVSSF

- reduction of xylose in plasma, individual 12 versus individual 1 (intestinal lactase [1]; 3 g oral, 2 hours): 72%
- reduction of xylose in plasma, individual 12 versus individual 2 (intestinal lactase [1]; 3 g oral, 2 hours): 75%
- xylose in blood plasma 2 hours after intake (intestinal lactase [1]; hypolactasic individual 12, 3 g oral): 0.48 μg/100 μl of plasma
- linear correlation coefficient (r) between xylose in blood plasma and intestinal lactase activity (intestinal lactase [2]; unweaned rats aged 12 to 35 days, 8 mg oral, plasma 3 hours after administration): 0.98
Compound: OCC1O[C@@H](O[C@@H]2COC(O)C(O)[C@H]2O)C(O)[C@@H](O)[C@H]1O (some centres unmarked)
- xylose in blood plasma in a similar period of time (2 hours) (intestinal lactase [1]; individual 1 with lactose tolerance, 3 g oral): 1.72 μg/100 ml of plasma
- xylose in blood plasma in a similar period of time (2 hours) (intestinal lactase [1]; individual 2 with lactose tolerance, 3 g oral): 1.95 μg/100 ml of plasma
- xylose in blood plasma after 6 hours (intestinal lactase [1]; individuals 1 and 2 with lactose tolerance, 3 g oral): undetectable
- dose dependence of amount of xylose in plasma (intestinal lactase [2]; unweaned rats, oral doses between 4 and 16 mg in 0.3 ml of water): increases with the increase of the amount of 4-galactosyl-xylose
